Test system: Trychophyton rubrum
Test: Percent kill rate of topical products inoculated with T. rubrum (residual microbial content by serial dilution)
Format: cell-based
Experimental: Various compositions, e.g. creams, lotions, and gels, containing urea as the sole active ingredient at various concentrations were tested against Trychophyton rubrum, a fungus typically implicated in Moccasin tinea pedis and onychomycosis, and compared to traditional antifungal compositions. A solution of the individual or combination products were inoculated with a known starting concentration of T. rubrum. These solutions were then retested at the specific time intervals to determine the residual microbial content.
The decrease in the residual microbial content calculated as a percentage of its initial starting concentration is the percent kill rate reported in the following table.

Which “antifungal activity (conclusion from the kill rate tests)” value does the source give for `NC(N)=O` [urea] here?
Its value is “effective antifungal agent”.
